In a melting point compilation (Tetko et al.; mined from patent text by program, amines drawn as free bases though some values may be those of a salt):

First: O=C(O)c1ccc(COCc2csc3nc(C(=O)NCc4ccc(F)c(F)c4)[nH]c(=O)c23)cc1
Second: COc1ccc(CN2C(=O)C(C)(c3cc(C(=O)N4CCCCC4C(=O)N(C)CC(F)(F)F)ccc3Cl)c3cc(Cl)ccc32)c(OC)c1 (centres undefined)
The melting point of the first is higher: 249 to 251 °C for the first, 99 °C for the second.

Compared with `COc1ccc2c(c1F)C(=O)N(Nc1ccncc1)C2=O`, `O=C1C(Cl)=C(Cl)C(=O)N1c1ccc(Oc2ccccc2)cc1` is lower in melting point: 206 to 210 °C for the first, 180 to 181 °C for the second.

First: CCOC(=O)C1=C(C)N(C)C(C)=C(C(=O)OCC)C1c1ccccc1/C=C/C(=O)OC(C)(C)C
Second: CCCCn1c(=O)c2c(N(C)C)n[nH]c2n(Cc2ccccc2)c1=O
The melting point of the first is lower: 149 to 151 °C for the first, 177 to 179 °C for the second.

First: CCC1Cc2ccc(C)cc2C1=O (centres undefined)
Second: CCCCCN1C(=O)C(N)(CC(=O)c2cccs2)c2ccccc21 (centres undefined)
The melting point of the first is lower: 50 to 52 °C for the first, 167 to 169 °C for the second.

First: Nc1ccc(-c2noc(-c3cnn4c(C(F)(F)F)cc(-c5ccc(Cl)cc5)nc34)n2)cn1
Second: ClCc1cc(-c2ccccc2)nc2ccccc12
The melting point of the first is higher: 253 °C for the first, 79 °C for the second.

Compared with `O=C(O)CNC(=O)c1cc(-c2ccc3c(c2)OCO3)c2c3c(ccc2c1)OCO3`, `O=C(Nc1cccc(CN2C(=O)[C@H]3CCC[C@H]3N(C(=O)CN3C(=O)c4ccccc4C3=O)c3ccccc32)c1)OCc1ccccc1` (relative stereo) is lower in melting point: 255 to 257 °C for the first, 224 to 225 °C for the second.

Compared with `N#Cc1c(-c2ccccc2)[nH]c(Cl)c1Cl`, `CC(CCCC(C)C1C(O)CC2C3CC=C4CC(O)CCC4(C)C3CCC21C)CN1C(=O)c2ccccc2C1=O` (centres undefined) is lower in melting point: 254 to 255 °C for the first, 134 to 136 °C for the second.

Compared with `CCc1noc(-c2cn(-c3cnccn3)cn2)n1`, `CCOC(=O)c1cn(-c2nncs2)c2nc(Cl)c(F)cc2c1=O` is higher in melting point: 166 to 167 °C for the first, 201 to 203 °C for the second.

First: CSC(=S)C1(c2ccccn2)OCCCS1 (centres undefined)
Second: CC(C)[C@H]1CC[C@H](Nc2ncc(Cc3ccc(O)nc3)c3ncccc23)CC1
The melting point of the first is lower: 116 °C for the first, 232 to 235 °C for the second.

With `CC(=CCO)COc1ccc([N+](=O)[O-])cc1` the melting point was 41 to 43 °C.
